Among the data in patent publication US20250188069A1, “COMPOUNDS AND METHODS FOR DEGRADING CASEIN KINASE 1 ALPHA” (PIN THERAPEUTICS, INC., priority 2022, published 2025) are IC50 values, retold here.

Structures can show the parent of a compound that is named as a salt.

The first assay relates to MV-4-11 cells. In words: AML cell viability assay (RealTime-Glo). In kind it is cell-based. The conditions noted are these: Homo sapiens, MV4-11, 44 h, read-out: Cell viability classification.
Turning to `O=C1CCC(N2Cc3c(cccc3N(CCC3CC3)[C@H]3CC[C@@H](Nc4ccccn4)CC3)C2=O)C(=O)N1` (stereo partly shown) [Compound 575, 3-{4-[(2-cyclopropylethyl)[(1s,4s)-4-(pyridin-2-ylamino)cyclohexyl]amino]-1-oxo-3H-isoindol-2-yl}piperidine-2,6-dione], the IC50 was 100 to 1000 nM.
The same measure, in the same setting: the value for `O=C1CCC(N2Cc3c(cccc3N(CCC3CC3)[C@H]3CC[C@H](Nc4ccccn4)CC3)C2=O)C(=O)N1` (stereo partly shown) [Compound 576, 3-{4-[(2-cyclopropylethyl)[(1r,4r)-4-(pyridin-2-ylamino)cyclohexyl]amino]-1-oxo-3H-isoindol-2-yl}piperidine-2,6-dione] was 100 to 1000 nM.

Still in this assay, the particulars now being: Homo sapiens, MV4-11; IC50 class; MV-4-11 cells, RealTime-Glo after 44 hrs of treatment (TABLE 1); read-out: Cell viability classification.
On to `N[C@H]1CC[C@H](N(CCC=C2CCOCC2)c2cccc3c2CN(C2CCC(=O)NC2=O)C3=O)CC1` (stereo partly shown) [Compound 344, 3-(4-(((1r,4r)-4-aminocyclohexyl)(3-(tetrahydro-4H-pyran-4-ylidene)propyl)amino)-1-oxoisoindolin-2-yl)piperidine-2,6-dione. Formic Acid], for which the IC50 lay within 100 to 1000 nM.
For the compound `N[C@H]1CC[C@H](N(CCCC2CCOC2)c2cccc3c2CN(C2CCC(=O)NC2=O)C3=O)CC1` (stereo partly shown) [Compound 345, 3-(4-(((1r,4r)-4-aminocyclohexyl)(3-(tetrahydrofuran-3-yl)propyl)amino)-1-oxoisoindolin-2-yl)piperidine-2,6-dione], the IC50 is 100 to 1000 nM.
For `N[C@H]1CC[C@H](N(CCCC2CCCO2)c2cccc3c2CN(C2CCC(=O)NC2=O)C3=O)CC1` (stereo partly shown) [Compound 346, 3-(4-(((1r,4r)-4-aminocyclohexyl)(3-(tetrahydrofuran-2-yl)propyl)amino)-1-oxoisoindolin-2-yl)piperidine-2,6-dione, HCl], the IC50 is 100 to 1000 nM.
`N[C@H]1CC[C@H](N(CCCC2COC2)c2cccc3c2CN(C2CCC(=O)NC2=O)C3=O)CC1` (stereo partly shown) [Compound 347, 3-(4-(((1r,4r)-4-aminocyclohexyl)(3-(oxetan-3-yl)propyl)amino)-1-oxoisoindolin-2-yl)piperidine-2,6-dione]: the IC50 was 100 to 1000 nM.
On the same count and under the same terms, the value for `N[C@H]1CC[C@H](N(Cc2ccccc2)c2cccc3c2CN(C2CCC(=O)NC2=O)C3=O)CC1` (stereo partly shown) [Compound 349, 3-(4-(((1r,4r)-4-aminocyclohexyl)(benzyl)amino)-1-oxoisoindolin-2-yl)piperidine-2,6-dione] was > 1000 nM; that for `N[C@H]1CC[C@@H](N(CCC2CC2)c2cccc3c2CN(C2CCC(=O)NC2=O)C3=O)C1` (stereo partly drawn) [Compound 352, 3-(4-(((1R,3S)-3-aminocyclopentyl)(2-cyclopropylethyl)amino)-1-oxoisoindolin-2-yl)piperidine-2,6-dione] was < 100 nM.
The same measure, in the same setting: to `N[C@H]1CC[C@@H](N(CCCC2CCOCC2)c2cccc3c2CN(C2CCC(=O)NC2=O)C3=O)C1` (stereo partly drawn) [Compound 353, 3-(4-(((1R,3S)-3-aminocyclopentyl)(3-(tetrahydro-2H-pyran-4-yl)propyl)amino)-1-oxoisoindolin-2-yl)piperidine-2,6-dione] belongs 100 to 1000 nM; to `C[C@H]1CC[C@@H](N(c2cccc3c2CN(C2CCC(=O)NC2=O)C3=O)[C@@H]2CC[C@H](N)C2)CC1` (stereo partly drawn) [Compound 354, 3-(4-(((1R,3S)-3-aminocyclopentyl)((1s,4S)-4-methylcyclohexyl)amino)-1-oxoisoindolin-2-yl)piperidine-2,6-dione], > 1000 nM; to `O=C1CCC(N2Cc3c(cccc3N(CCC3CC3)[C@@H]3CC[C@H](NCC4CC4)C3)C2=O)C(=O)N1` (stereo partly drawn) [Compound 355, 3-(4-((2-cyclopropylethyl)((1R,3S)-3-((cyclopropylmethyl)amino)cyclopenty 1)amino)-1-oxoisoindolin-2-yl)piperidine-2,6-dione], < 100 nM.
For `O=C1CCC(N2Cc3c(cccc3N(CCCC3CCOCC3)[C@@H]3CC[C@H](NCC4CC4)C3)C2=O)C(=O)N1` (stereo partly drawn) [Compound 356, 3-(4-(((1R,3S)-3-((cyclopropylmethyl)amino)cyclopenty 1)(3-(tetrahydro-2H-pyran-4-yl)propyl)amino)-1-oxoisoindolin-2-yl)piperidine-2,6-dione], the IC50 is < 100 nM.
Turning to `NC(=O)[C@H]1CC[C@@H](N(CCC2CC2)c2cccc3c2CN(C2CCC(=O)NC2=O)C3=O)C1` (stereo partly drawn) [Compound 359, (1S,3R)-3-((2-cyclopropylethyl)(2-(2,6-dioxopiperidin-3-yl)-1-oxoisoindolin-4-yl)amino)cyclopentane-1-carboxamide], the IC50 is < 100 nM.
Same read-out and setting: to `CNC(=O)[C@H]1CC[C@@H](N(CCC2CC2)c2cccc3c2CN(C2CCC(=O)NC2=O)C3=O)C1` (stereo partly drawn) [Compound 360, (1S,3R)-3-((2-cyclopropylethyl)(2-(2,6-dioxopiperidin-3-yl)-1-oxoisoindolin-4-yl)amino)-N-methylcyclopentane-1-carboxamide] belongs < 100 nM.
With `NC(=O)[C@H]1CC[C@@H](N(CCCC2CCOCC2)c2cccc3c2CN(C2CCC(=O)NC2=O)C3=O)C1` (stereo partly drawn) [Compound 361, (1S,3R)-3-((2-(2,6-dioxopiperidin-3-yl)-1-oxoisoindolin-4-yl)(3-(tetrahydro-2H-pyran-4-yl)propyl)amino)cyclopentane-1-carboxamide], the IC50 is 100 to 1000 nM.
The same measure, in the same setting: to `CNC(=O)[C@H]1CC[C@@H](N(CCCC2CCOCC2)c2cccc3c2CN(C2CCC(=O)NC2=O)C3=O)C1` (stereo partly drawn) [Compound 362, (1S,3R)-3-((2-(2,6-dioxopiperidin-3-yl)-1-oxoisoindolin-4-yl)(3-(tetrahydro-2H-pyran-4-yl)propyl)amino)-N-methylcyclopentane-1-carboxamide] belongs 100 to 1000 nM.

Staying with this assay, now noted: Homo sapiens, MV4-11; IC50 class; MV-4-11 cells, RealTime-Glo after 44 hrs of treatment (TABLE 4); read-out: Cell viability classification.
Regarding `N[C@H]1CO[C@H]2[C@@H]1OC[C@@H]2N(CCC1CC1)c1cccc2c1CN(C1CCC(=O)NC1=O)C2=O` (stereo partly drawn) [Compound 550, 3-(4-{[(3S,3aR,6S,6aR)-6-amino-hexahydrofuro[3,2-b]furan-3-yl](2-cyclopropylethyl)amino}-1-oxo-3H-isoindol-2-yl)piperidine-2,6-dione], the IC50 was 100 to 1000 nM.
Turning to `O=C1CCC(N2Cc3c(cccc3N(CCC3(C(F)(F)F)CC3)[C@H]3CC[C@H](NC4CC(F)(F)C4)CC3)C2=O)C(=O)N1` (stereo partly shown) [Compound 554, 3-(4-(((1r,4r)-4-((3,3-difluorocyclobutyl)amino)cyclohexyl)(2-(1-(trifluoromethyl)cyclopropyl)ethyl)amino)-1-oxoisoindolin-2-yl)piperidine-2,6-dione formate], the IC50 fell in the range of 100 to 1000 nM.
The same measure, in the same setting: to `O=C1CCC(N2Cc3c(cccc3N(CCC3(C(F)(F)F)CC3)[C@H]3CC[C@@H](NC4CC(F)(F)C4)CC3)C2=O)C(=O)N1` (stereo partly shown) [Compound 554A, 3-(4-(((1s,4s)-4-((3,3-difluorocyclobutyl)amino)cyclohexyl)(2-(1-(trifluoromethyl)cyclopropyl)ethyl)amino)-1-oxoisoindolin-2-yl)piperidine-2,6-dione] belongs 100 to 1000 nM; to `O=C1CCC(N2Cc3c(cccc3N(CC3CC4(CCC4)C3)[C@H]3CC[C@H](NC4CC(F)(F)C4)CC3)C2=O)C(=O)N1` (stereo partly shown) [Compound 557, 3-(1-oxo-4-{[(1r,4r)-4-[(3,3-difluorocyclobutyl)amino]cyclohexyl]({spiro[3.3]heptan-2-ylmethyl})amino}-3H-isoindol-2-yl)piperidine-2,6-dione], 100 to 1000 nM.
On the same count and under the same terms, to `N[C@H]1C[C@H](CN(CC2CC3(CCC3)C2)c2cccc3c2CN(C2CCC(=O)NC2=O)C3=O)C1` (stereo partly shown) [Compound 558-2, 3-[1-oxo-4-({[(1r,3r)-3-aminocyclobutyl]methyl}({spiro[3.3]heptan-2-ylmethyl})amino)-3H-isoindol-2-yl]piperidine-2,6-dione] belongs < 100 nM; to `O=C1CCC(N2Cc3c(cccc3N(CCC3CC3)[C@H]3CC[C@H](NCC(=O)N4CCC(F)(F)CC4)CC3)C2=O)C(=O)N1` (stereo partly shown) [Compound 561, 3-{4-[(2-cyclopropylethyl)[(1r,4r)-4-{[2-(4,4-difluoropiperidin-1-yl)-2-oxoethyl]amino}cyclohexyl]amino]-1-oxo-3H-isoindol-2-yl}piperidine-2,6-dione], < 100 nM.
Take `CCN(CC)C(=O)CN[C@H]1CC[C@H](N(CCC2CC2)c2cccc3c2CN(C2CCC(=O)NC2=O)C3=O)CC1` (stereo partly shown) [Compound 562, N,N-diethyl-2-{[(1r,4r)-4-[(2-cyclopropylethyl)[2-(2,6-dioxopiperidin-3-yl)-1-oxo-3H-isoindol-4-yl]amino]cyclohexyl]amino}acetamide]: the IC50 fell in the range of 100 to 1000 nM.
For the compound `O=C1CCC(N2Cc3c(cccc3N(CCC3CC3)[C@H]3CC[C@@H](c4nnc[nH]4)CC3)C2=O)C(=O)N1` (stereo partly shown) [Compound 573, 3-{4-[(2-cyclopropylethyl)[(1s,4s)-4-(4H-1,2,4-triazol-3-yl)cyclohexyl]amino]-1-oxo-3H-isoindol-2-yl}piperidine-2,6-dione; formate], the IC50 was < 100 nM.
In the case of `O=C1CCC(N2Cc3c(cccc3N(CCC3CC3)[C@H]3CC[C@H](c4nnc[nH]4)CC3)C2=O)C(=O)N1` (stereo partly shown) [Compound 574, 3-{4-[(2-cyclopropylethyl)[(1r,4r)-4-(4H-1,2,4-triazol-3-yl)cyclohexyl]amino]-1-oxo-3H-isoindol-2-yl}piperidine-2,6-dione; formate], the IC50 lay within 100 to 1000 nM.
With `O=C1CCC(N2Cc3c(cccc3N(CCC3CC3)[C@H]3CC[C@H](NCC(F)(F)F)CC3)C2=O)C(=O)N1` (stereo partly shown) [Compound 580, 3-{4-[(2-cyclopropylethyl)[(1r,4r)-4-[(2,2,2-trifluoroethyl)amino]cyclohexyl]amino]-1-oxo-3H-isoindol-2-yl}piperidine-2,6-dione], the IC50 is > 1000 nM.
On the same count and under the same terms, the value for `O=C1CCC(N2Cc3c(cccc3N(CCC3CC3)[C@H]3CC[C@H](NCC4(C(F)(F)F)CC4)CC3)C2=O)C(=O)N1` (stereo partly shown) [Compound 582, 3-{4-[(2-cyclopropylethyl)[(1r,4r)-4-({[1-(trifluoromethyl)cyclopropyl]methyl}amino)cyclohexyl]amino]-1-oxo-3H-isoindol-2-yl}piperidine-2,6-dione] was < 100 nM; that for `CC(N[C@H]1CC[C@H](N(CCC2CC2)c2cccc3c2CN(C2CCC(=O)NC2=O)C3=O)CC1)C(F)F` (stereo partly shown) [Compound 583, 3-{4-[(2-cyclopropylethyl)[(1r,4r)-4-[(1,1-difluoropropan-2-yl)amino]cyclohexyl]amino]-1-oxo-3H-isoindol-2-yl}piperidine-2,6-dione] was 100 to 1000 nM.
